Results on two substances are retold here after PMC7235175, “Analysis of Pigment-Dispersing Factor Neuropeptides and Their Receptor in a Velvet Worm” (Frontiers in Endocrinology, 2020).

This test has as its system PDF receptor Er-PDFR of E. rowelli. Kind of test: BRET assay: cAMP response (Epac-L sensor) of HEK293T cells transfected with Er-PDFR. The format is cell-based, Euperipatoides rowelli. The settings on record: for potency of PDF-II relative to PDF-I as activating ligand / activation of Er-PDFR (cAMP response): HEK293T, Epac-L BRET, n = 8; for potency of PDF-II relative to PDF-I as activating ligand: comparison of activation by the two peptides; for activation of Er-PDFR (cAMP response): Rm-MIP7 as control (unrelated peptide). As to the method: HEK293T cells were seeded on 96-well Nunc plates (Thermo Fisher Scientific, Waltham, MA, USA) at a density of 2 ×10^4 cells/well and cultured in DMEM high glucose (Sigma-Aldrich Chemie GmbH, Munich, Germany) supplemented with 10% fetal bovine serum and 5% CO2 at 37°C. After 24 h, cells were transfected using polyethyleneimine (25 kDa PEI, linear; Polysciences Europe GmbH, Hirschberg an der Bergstrasse, Germany) with GFP2-hEpac1E157-P881-Rluc8 [Epac-L; modified from ([83]–[85])] and pcDNA3.1-ErPDFR-3K10 in a 1:1 ratio (100 ng total DNA/well). Cells were washed with HBSS (Thermo Fisher Scientific) 2 days after transfection and stimulated with different concentrations of synthetic PDF peptides (10^−11 to 10^−5 M final concentration) together with the substrate coelenterazine 400A (“DeepBlueC”; BIOTREND Chemikalien GmbH, Cologne, Germany) at a final concentration of 5 μM in a total volume of 50 μL HBSS. Control experiments were conducted with cells expressing Epac-L alone, stimulation without PDF peptides, stimulation using an unrelated peptide (myoinhibitory peptide 7 from the cockroach Rhyparobia maderae), and stimulation with forskolin (50 μM final concentration; Sigma-Aldrich Chemie GmbH) + IBMX (100 μM final concentration; Sigma-Aldrich Chemie GmbH), respectively. The raw luminescence was measured immediately after stimulation at wavelengths of 410 ± 80 nm for the donor and 515 ± 30 nm for the acceptor in eight biological replicates for each tested PDF peptide concentration (n = 8) using a POLARstar Omega microplate reader (BMG Labtech, Cary, NC, USA). Their ratios [emission (410 nm)/emission (515 nm)] were box plotted as relative luminescence against the respective PDF concentration in dose response curves.

“Also recorded” adds a separate entry of the source.

“CNAELINSLLNLPQKLQEA-NH2 [Er-PDF-II, HPLC-purified synthetic pigment-dispersing factor peptide II of Euperipatoides rowelli]”: the “potency of PDF-II relative to PDF-I as activating ligand” value is on record as “one order of magnitude more potent than Er-PDF-I”. Besides, the “potency of PDF-II relative to PDF-I as activating ligand” value (listed as PDF-II) is reported as “tenfold higher potency than PDF-I”. Further, the “activation of Er-PDFR (cAMP response)” value (peptide 10^−11 to 10^−5 M) is “activated by both PDF peptides of E. rowelli, Er-PDF-I and Er-PDF-II, in a dose-dependent manner; also recorded: activated by Er-PDF-I and Er-PDF-II in a distinct and dose-dependent manner”.
Turning to “CNAELINSLLGLPKMMNDA-NH2 [Er-PDF-I, HPLC-purified synthetic pigment-dispersing factor peptide I of Euperipatoides rowelli]”, where the note is “HEK293T cells co-transfected with Epac-L and pcDNA3.1-ErPDFR-3K10 (1:1), peptide 10^−11 to 10^−5 M, coelenterazine 400A 5 μM in HBSS, emission 410/515 nm read immediately after stimulation, n = 8 biological replicates”, the “activation threshold (minimum concentration required for PDFR stimulation)” value is listed as 10^−6 M. In addition, the “activation of Er-PDFR (cAMP response)” value (peptide 10^−11 to 10^−5 M) is “activated by both PDF peptides of E. rowelli, Er-PDF-I and Er-PDF-II, in a dose-dependent manner; also recorded: activated by Er-PDF-I and Er-PDF-II in a distinct and dose-dependent manner”.
